Data: patent US12077503B2, “Substituted cyclic amides and their use as herbicides” (FMC CORPORATION, priority 2015, dated 2024)

What was measured:
Type in all cases: in vivo
[1] = tested on: barnyardgrass (Echinochloa crus-galli); experiment: Test G Pre-Emergence Protocol; conditions: Echinochloa crus-galli, pre-emergence, 312 h, evaluated after 13 days; for pest or weed control at 15.625 g/ha: 15.625 g ai/ha; for pest or weed control at 15.625 g/ha / pest or weed control at 250 g/ha: read-out: Barnyardgrass damage rating (100=total damage to plant; 0=no damage to plant); for pest or weed control at 62.5 g/ha: 62.5 g ai/ha, 100=total damage to plant, 0=no damage to plant, read-out: Barnyardgrass damage rating; for pest or weed control at 250 g/ha: 250 g ai/ha
Outline: (§1)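 One day after sowing, pots are treated with a spray of test compound formulated in acetone/water 50:50 plus 0.5% Tween 20, giving 15.625, 62.5 or 250 g/ha. Evaluation on a 0–100 damage scale follows 13 days of glasshouse growth.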

[2] = tested on: corn (Zea mays); experiment: Test G Pre-Emergence Protocol; conditions: evaluated after 13 days; for plant injury at 62.5 g/ha: 62.5 g ai/ha, 100=total damage to plant, 0=no damage to plant, read-out: Corn damage rating; for plant injury at 250 g/ha: 250 g ai/ha
Outline: as §1

[3] = tested on: giant foxtail (Setaria faberi); experiment: Test G Pre-Emergence Protocol; conditions: Setaria faberi, pre-emergence, 312 h, evaluated after 13 days; for pest or weed control at 15.625 g/ha: 15.625 g ai/ha; for pest or weed control at 15.625 g/ha / pest or weed control at 250 g/ha: read-out: Foxtail, Giant damage rating (100=total damage to plant; 0=no damage to plant); for pest or weed control at 62.5 g/ha: 62.5 g ai/ha, 100=total damage to plant, 0=no damage to plant, read-out: Foxtail, Giant damage rating; for pest or weed control at 250 g/ha: 250 g ai/ha
Outline: as §1

[4] = tested on: ivy-leaved morning glory (Ipomoea hederacea); experiment: Test G Pre-Emergence Protocol; conditions: evaluated after 13 days; for pest or weed control at 15.625 g/ha: 15.625 g ai/ha; for pest or weed control at 15.625 g/ha / pest or weed control at 250 g/ha: read-out: Morningglory, Ivy-leaved damage rating (100=total damage to plant; 0=no damage to plant); for pest or weed control at 250 g/ha: 250 g ai/ha
Outline: as §1

[5] = tested on: redroot pigweed (Amaranthus retroflexus); experiment: Test G Pre-Emergence Protocol; conditions: evaluated after 13 days; for pest or weed control at 15.625 g/ha: 15.625 g ai/ha; for pest or weed control at 62.5 g/ha: 62.5 g ai/ha, 100=total damage to plant, 0=no damage to plant, read-out: Pigweed, Redroot damage rating
Outline: as §1

[6] = tested on: velvetleaf (Abutilon theophrasti); experiment: Test G Pre-Emergence Protocol; conditions: evaluated after 13 days; for pest or weed control at 62.5 g/ha: 62.5 g ai/ha, 100=total damage to plant, 0=no damage to plant, read-out: Velvetleaf damage rating; for pest or weed control at 250 g/ha: 250 g ai/ha
Outline: as §1

[7] = tested on: barnyardgrass (Echinochloa crus-galli); experiment: Test G Post-Emergence Protocol; conditions: Echinochloa crus-galli, post-emergence, 312 h, read-out: Barnyardgrass damage rating; for pest or weed control at 15.625 g/ha: 15.625 g ai/ha, evaluated after 13 days (100=total damage to plant; 0=no damage to plant); for pest or weed control at 62.5 g/ha: 62.5 g ai/ha; for pest or weed control at 62.5 g/ha / pest or weed control at 250 g/ha: evaluated after 13 days, 100=total damage to plant, 0=no damage to plant; for pest or weed control at 250 g/ha: 250 g ai/ha
Outline: (§2)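 Seedlings grown 8 days in soil in a glasshouse (24/16 °C day/night, 14 h light, 65% humidity) were sprayed post-emergence with compound in acetone/water 50:50 plus 0.5% Tween 20 at 15.625, 62.5 or 250 g/ha. Damage was scored after 13 days on a 0–100 scale (100 = total damage).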

[8] = tested on: corn (Zea mays); experiment: Test G Post-Emergence Protocol; conditions: Zea mays, post-emergence, 312 h, read-out: Corn damage rating; for plant injury at 15.625 g/ha: 15.625 g ai/ha, evaluated after 13 days (100=total damage to plant; 0=no damage to plant); for plant injury at 62.5 g/ha: 62.5 g ai/ha; for plant injury at 62.5 g/ha / plant injury at 250 g/ha: evaluated after 13 days, 100=total damage to plant, 0=no damage to plant; for plant injury at 250 g/ha: 250 g ai/ha
Outline: as §2

[9] = tested on: giant foxtail (Setaria faberi); experiment: Test G Post-Emergence Protocol; conditions: Setaria faberi, post-emergence, 312 h, read-out: Foxtail, Giant damage rating; for pest or weed control at 15.625 g/ha: 15.625 g ai/ha, evaluated after 13 days (100=total damage to plant; 0=no damage to plant); for pest or weed control at 62.5 g/ha: 62.5 g ai/ha; for pest or weed control at 62.5 g/ha / pest or weed control at 250 g/ha: evaluated after 13 days, 100=total damage to plant, 0=no damage to plant; for pest or weed control at 250 g/ha: 250 g ai/ha
Outline: as §2

[10] = tested on: ivy-leaved morning glory (Ipomoea hederacea); experiment: Test G Post-Emergence Protocol; conditions: for pest or weed control at 62.5 g/ha: 62.5 g ai/ha; for pest or weed control at 62.5 g/ha / pest or weed control at 250 g/ha: evaluated after 13 days, 100=total damage to plant, 0=no damage to plant; for pest or weed control at 250 g/ha: 250 g ai/ha
Outline: as §2

[11] = tested on: redroot pigweed (Amaranthus retroflexus); experiment: Test G Post-Emergence Protocol; conditions: Amaranthus retroflexus, post-emergence, 312 h, read-out: Pigweed, Redroot damage rating; for pest or weed control at 15.625 g/ha: 15.625 g ai/ha, evaluated after 13 days (100=total damage to plant; 0=no damage to plant); for pest or weed control at 62.5 g/ha: 62.5 g ai/ha; for pest or weed control at 62.5 g/ha / pest or weed control at 250 g/ha: evaluated after 13 days, 100=total damage to plant, 0=no damage to plant; for pest or weed control at 250 g/ha: 250 g ai/ha
Outline: as §2

[12] = tested on: velvetleaf (Abutilon theophrasti); experiment: Test G Post-Emergence Protocol; conditions: for pest or weed control at 15.625 g/ha: 15.625 g ai/ha, evaluated after 13 days (100=total damage to plant; 0=no damage to plant); for pest or weed control at 250 g/ha: 250 g ai/ha
Outline: as §2

[13] = Zea mays, pre-emergence, 312 h, read-out: Corn damage rating (100=total damage to plant; 0=no damage to plant)
[14] = Amaranthus retroflexus, pre-emergence, 312 h, read-out: Pigweed, Redroot damage rating (100=total damage to plant; 0=no damage to plant)
[15] = Amaranthus retroflexus, pre-emergence, 312 h
[16] = Abutilon theophrasti, pre-emergence, 312 h
[17] = Abutilon theophrasti, pre-emergence, 312 h, read-out: Velvetleaf damage rating (100=total damage to plant; 0=no damage to plant)
[18] = Ipomoea, post-emergence, 312 h, read-out: Morningglory, Ivy-leaved damage rating
[19] = Abutilon theophrasti, post-emergence, 312 h, read-out: Velvetleaf damage rating
[20] = Abutilon theophrasti, post-emergence, 312 h, evaluated after 13 days, 100=total damage to plant, 0=no damage to plant, read-out: Velvetleaf damage rating

Structure (SMILES)	pest or weed control at 15.625 g/ha [1] [%]	pest or weed control at 62.5 g/ha [1] [%]	pest or weed control at 250 g/ha [1] [%]	plant injury at 62.5 g/ha ([2]; Zea mays, pre-emergence, 312 h) [%]	plant injury at 250 g/ha [2, 13] [%]	pest or weed control at 15.625 g/ha [3] [%]	pest or weed control at 62.5 g/ha [3] [%]	pest or weed control at 250 g/ha [3] [%]	pest or weed control at 15.625 g/ha ([4]; Ipomoea, pre-emergence, 312 h) [%]	pest or weed control at 250 g/ha ([4]; Ipomoea, pre-emergence, 312 h) [%]	pest or weed control at 15.625 g/ha [5, 14] [%]	pest or weed control at 62.5 g/ha [5, 15] [%]	pest or weed control at 62.5 g/ha [6, 16] [%]	pest or weed control at 250 g/ha [6, 17] [%]	pest or weed control at 15.625 g/ha [7] [%]	pest or weed control at 62.5 g/ha [7] [%]	pest or weed control at 250 g/ha [7] [%]	plant injury at 15.625 g/ha [8] [%]	plant injury at 62.5 g/ha [8] [%]	plant injury at 250 g/ha [8] [%]	also measured
CN1C[C@H](c2cccc(C(F)(F)F)c2)[C@@H](C(=O)Nc2cccc(F)n2)C1=O (racemic) [Compound 1671]	70	90	90	80	80	80	90	90	10	70	0	30	30	60	70	70	80	60	70	80	Corn damage rating (100=total damage to plant; 0=no damage to plant) ([2]; 15.625 g ai/ha): 30; Morningglory, Ivy-leaved damage rating ([4]; 62.5 g ai/ha, 100=total damage to plant, 0=no damage to plant): 20; Pigweed, Redroot damage rating (100=total damage to plant; 0=no damage to plant) ([5]; 250 g ai/ha): 50; Velvetleaf damage rating (100=total damage to plant; 0=no damage to plant) ([6]; 15.625 g ai/ha): 20; pest or weed control at 15.625 g/ha [9]: 70%; pest or weed control at 62.5 g/ha [9]: 80%; pest or weed control at 250 g/ha [9]: 80%; Morningglory, Ivy-leaved damage rating ([10]; 15.625 g ai/ha, evaluated after 13 days (100=total damage to plant; 0=no damage to plant)): 0; pest or weed control at 62.5 g/ha [10, 18]: 70%; pest or weed control at 250 g/ha [10, 18]: 50%; pest or weed control at 15.625 g/ha [11]: 10%; pest or weed control at 62.5 g/ha [11]: 30%; pest or weed control at 250 g/ha [11]: 50%; Velvetleaf damage rating ([12]; 62.5 g ai/ha, evaluated after 13 days, 100=total damage to plant, 0=no damage to plant): 10; pest or weed control at 15.625 g/ha [12, 19]: 0%; pest or weed control at 250 g/ha [12, 20]: 40%
CCOc1ccc(C2CN(C)C(=O)C2C(=O)Nc2cccc(F)c2F)cc1OCC (stereo not drawn) [Compound 1716]	0	80	90	0	60	30	90	90	0	0	0	10	10	10	0	60	80	0	10	60	plant injury at 15.625 g/ha ([2]; Zea mays, pre-emergence, 312 h, 15.625 g ai/ha, read-out: Corn damage rating (100=total damage to plant; 0=no damage to plant)): 0%; pest or weed control at 62.5 g/ha ([4]; Ipomoea, pre-emergence, 312 h, 62.5 g ai/ha, 100=total damage to plant, 0=no damage to plant, read-out: Morningglory, Ivy-leaved damage rating): 0%; pest or weed control at 250 g/ha ([5]; Amaranthus retroflexus, pre-emergence, 312 h, 250 g ai/ha, read-out: Pigweed, Redroot damage rating (100=total damage to plant; 0=no damage to plant)): 10%; pest or weed control at 15.625 g/ha ([6]; Abutilon theophrasti, pre-emergence, 312 h, 15.625 g ai/ha, read-out: Velvetleaf damage rating (100=total damage to plant; 0=no damage to plant)): 0%; pest or weed control at 15.625 g/ha [9]: 40%; pest or weed control at 62.5 g/ha [9]: 70%; pest or weed control at 250 g/ha [9]: 80%; pest or weed control at 15.625 g/ha ([10]; Ipomoea, post-emergence, 312 h, 15.625 g ai/ha, evaluated after 13 days (100=total damage to plant; 0=no damage to plant), read-out: Morningglory, Ivy-leaved damage rating): 0%; pest or weed control at 62.5 g/ha [10, 18]: 0%; pest or weed control at 250 g/ha [10, 18]: 10%; pest or weed control at 15.625 g/ha [11]: 0%; pest or weed control at 62.5 g/ha [11]: 0%; pest or weed control at 250 g/ha [11]: 0%; pest or weed control at 15.625 g/ha [12, 19]: 0%; pest or weed control at 62.5 g/ha ([12]; Abutilon theophrasti, post-emergence, 312 h, 62.5 g ai/ha, evaluated after 13 days, 100=total damage to plant, 0=no damage to plant, read-out: Velvetleaf damage rating): 0%; pest or weed control at 250 g/ha [12, 20]: 0%
